Measured values: the supplement of paper PMC4932681

How the values were obtained:
BT-474 [1] = assay: relative IC50 (midpoint of fitted logistic curve, plateau may be below 50% inhibition; CellTiter-Glo viability); higher = less potent; conditions: 72 h
Method in brief: (§1)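 After seeding into 384-well plates with library drugs at five concentrations spanning a 10 000-fold range, breast cancer cell lines and their resistant derivatives were incubated 72 h at 37 °C. Resistant lines received medium with 1 μM of the selecting drug. CellTiter-Glo signal was read on a PHERAstar and scaled to vehicle-only and positive controls. Drug sensitivity score, relative IC50 (the curve midpoint) and top-dose inhibition came from logistic fits run in the Breeze pipeline.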

MCF-7 [2] = assay: as above; conditions: 72 h
Method in brief: as §1

T-47D Tam2 [3] = assay: as above; conditions: 4-OH-tamoxifen in medium 1 µM; 72 h
Method in brief: as §1

T-47D [4] = assay: as above; conditions: 72 h
Method in brief: as §1

ZR-75-1 Tam2 [5] = assay: as above; conditions: 4-OH-tamoxifen in medium 1 µM; 72 h
Method in brief: as §1

MCF-7 Tam1 [6] = assay: as above; conditions: 4-OH-tamoxifen in medium 1 µM; 72 h
Method in brief: as §1

ZR-75-1 Tam1 [7] = assay: as above; conditions: 4-OH-tamoxifen in medium 1 µM; 72 h
Method in brief: as §1

ZR-75-1 [8] = assay: as above; conditions: 72 h
Method in brief: as §1

BT-474 Tam1 [9] = assay: as above; conditions: 4-OH-tamoxifen in medium 1 µM; 72 h
Method in brief: as §1

BT-474 [10] = assay: drug sensitivity score (DSS) (DSS (dimensionless)); higher = more sensitive; extreme values may be limits of the assay; conditions: 72 h
Method in brief: as §1

MCF-7 [11] = assay: as above; conditions: 72 h
Method in brief: as §1

T-47D Tam2 [12] = assay: as above; conditions: 4-OH-tamoxifen in medium 1 µM; 72 h
Method in brief: as §1

T-47D Tam1 [13] = assay: as above; conditions: 4-OH-tamoxifen in medium 1 µM; 72 h
Method in brief: as §1

T-47D [14] = assay: as above; conditions: 72 h
Method in brief: as §1

ZR-75-1 Tam2 [15] = assay: as above; conditions: 4-OH-tamoxifen in medium 1 µM; 72 h
Method in brief: as §1

MCF-7 Tam1 [16] = assay: as above; conditions: 4-OH-tamoxifen in medium 1 µM; 72 h
Method in brief: as §1

ZR-75-1 Tam1 [17] = assay: as above; conditions: 4-OH-tamoxifen in medium 1 µM; 72 h
Method in brief: as §1

BT-474 Tam2 [18] = assay: as above; conditions: 4-OH-tamoxifen in medium 1 µM; 72 h
Method in brief: as §1

ZR-75-1 [19] = assay: as above; conditions: 72 h
Method in brief: as §1

BT-474 Tam1 [20] = assay: as above; conditions: 4-OH-tamoxifen in medium 1 µM; 72 h
Method in brief: as §1

BT-474 Tam2 [21] = assay: relative IC50 (midpoint of fitted logistic curve, plateau may be below 50% inhibition; CellTiter-Glo viability); higher = less potent; conditions: 4-OH-tamoxifen in medium 1 µM; 72 h
Method in brief: as §1

T-47D Tam1 [22] = assay: as above; conditions: 4-OH-tamoxifen in medium 1 µM; 72 h
Method in brief: as §1

relative IC50 (BT-474 [1]; 4-OH-tamoxifen in medium 0 µM) [µM] | relative IC50 (BT-474 [1]; 4-OH-tamoxifen in medium 1 µM) [µM] | relative IC50 (MCF-7 [2]; 4-OH-tamoxifen in medium 1 µM) [µM] | relative IC50 (T-47D Tam2 [3]) [µM] | relative IC50 (T-47D [4]; 4-OH-tamoxifen in medium 0 µM) [µM] | relative IC50 (MCF-7 Tam1 [6]) [µM] | relative IC50 (BT-474 Tam1 [9]) [µM] | relative IC50 (MCF-7 [2]; 4-OH-tamoxifen in medium 0 µM) [µM] | relative IC50 (T-47D [4]; 4-OH-tamoxifen in medium 1 µM) [µM] | relative IC50 (BT-474 Tam2 [21]) [µM] | relative IC50 (T-47D Tam1 [22]) [µM] | Structure (SMILES) | relative IC50 (ZR-75-1 Tam2 [5]) [µM] | relative IC50 (ZR-75-1 Tam1 [7]) [µM] | relative IC50 (ZR-75-1 [8]; 4-OH-tamoxifen in medium 1 µM) [µM] | drug sensitivity score (BT-474 [10]; 4-OH-tamoxifen in medium 0 µM) | drug sensitivity score (BT-474 [10]; 4-OH-tamoxifen in medium 1 µM) | drug sensitivity score (MCF-7 [11]; 4-OH-tamoxifen in medium 0 µM) | drug sensitivity score (MCF-7 [11]; 4-OH-tamoxifen in medium 1 µM) | drug sensitivity score (T-47D Tam2 [12]) | drug sensitivity score (T-47D Tam1 [13]) | drug sensitivity score (T-47D [14]; 4-OH-tamoxifen in medium 0 µM) | drug sensitivity score (T-47D [14]; 4-OH-tamoxifen in medium 1 µM) | drug sensitivity score (ZR-75-1 Tam2 [15]) | drug sensitivity score (MCF-7 Tam1 [16]) | drug sensitivity score (ZR-75-1 Tam1 [17]) | drug sensitivity score (BT-474 Tam2 [18]) | drug sensitivity score (ZR-75-1 [19]; 4-OH-tamoxifen in medium 0 µM) | drug sensitivity score (ZR-75-1 [19]; 4-OH-tamoxifen in medium 1 µM) | drug sensitivity score (BT-474 Tam1 [20]) | relative IC50 (ZR-75-1 [8]; 4-OH-tamoxifen in medium 0 µM) [µM]
0.00849 | 0.0059 | 0.0169 | 0.0109 | 0.00591 | > 1 | 0.0323 |  |  |  |  | CC(=O)O[C@H]1C(=O)[C@@]2(C)[C@H]([C@H](OC(=O)c3ccccc3)[C@]3(O)C[C@H](OC(=O)[C@H](O)[C@@H](NC(=O)c4ccccc4)c4ccccc4)C(C)=C1C3(C)C)[C@]1(OC(C)=O)CO[C@@H]1C[C@@H]2O [Paclitaxel] | > 1 | > 1 | > 1 | 11.5 | 15.5 | 7.01 | 7.14 | 7.33 | 7.9 | 13 | 1.38 | 0 | 0 | 0 | 3.11 | 6.96 | 0 | 4.68 | 
> 1 | > 1 | > 1 | > 1 |  | > 1 | > 1 | > 1 | > 1 | > 1 |  | Cn1c(Nc2ccc(C(F)(F)F)cc2)nc2cc(Oc3ccnc(-c4ncc(C(F)(F)F)[nH]4)c3)ccc21 [RAF265] |  | > 1 | > 1 | 0 | 0 | 0 | 0 | 0 | 8.26 | 0.294 | 0 | 0.002 | 0 | 0 | 0 | 0 | 0 | 0 | > 1
> 10 | 0.0515 |  | > 10 | > 10 | > 10 | 1.54 |  | > 10 |  |  | CN1CCN(c2nc(C3=C(c4c[nH]c5ccccc45)C(=O)NC3=O)c3ccccc3n2)CC1 [Sotrastaurin] | > 10 | > 10 | > 10 | 0 | 10.6 | 0.517 | 0 | 0 | 0 | 0 | 0 | 0 | 0 | 0 | 1.44 | 0 | 0 | 6.13 | > 10
2.64 | 3.34 | 1.27 | 1.38 | 0.768 |  | 3.12 | 1.45 | 1.53 | 4.18 | 1.1 | CCCCC(=O)OCC(=O)[C@]1(O)Cc2c(O)c3c(c(O)c2[C@@H](O[C@H]2C[C@H](NC(=O)C(F)(F)F)[C@H](O)[C@H](C)O2)C1)C(=O)c1c(OC)cccc1C3=O [Valrubicin] | 1.13 | 1.28 | 1.32 | 2.57 | 4.06 | 5.32 | 8.1 | 6.34 | 7.66 | 7.72 | 5.96 | 9.1 | 0.994 | 7.34 | 2.37 | 8.2 | 5.85 | 4.26 | 0.554
0.00377 | 0.0097 | 0.0138 | 0.0442 | 0.113 |  | 0.0481 | 0.00994 |  | 0.0244 | 0.0692 | CC[C@]1(O)C[C@@H]2CN(CCc3c([nH]c4ccccc34)[C@@](C(=O)OC)(c3cc4c(cc3OC)N(C)[C@H]3[C@@](O)(C(=O)OC)[C@H](OC(C)=O)[C@]5(CC)C=CCN6CC[C@]43[C@@H]65)C2)C1 [Vinblastine] | 0.0789 | 0.214 | 0.174 | 13.2 | 21.5 | 12.8 | 12.5 | 8.2 | 6.59 | 2.77 | 0.561 | 3.58 | 0.0008 | 1.94 | 17.1 | 11.9 | 2.61 | 13.1 | 0.00423
2.31 | 1.09 | 1.33 | 3.06 | 2.63 |  | 2.43 | 1.43 | 3.67 | 1.89 | 1.65 | O=C(CCCCCCC(=O)Nc1ccccc1)NO [Vorinostat] | 2.27 | 1.65 | 3.66 | 5.53 | 10.5 | 8.23 | 8.2 | 2.19 | 5.24 | 5.73 | 4.3 | 2.51 | 0.897 | 3.29 | 7.23 | 1.99 | 1.27 | 6.36 | 2.9
> 10 | > 10 |  | > 10 | > 10 | > 10 | > 10 | > 10 | > 10 |  |  | Oc1nc(-c2ccc(C(F)(F)F)cc2)nc2c1CSCC2 [XAV-939] |  | > 10 | > 10 | 0 | 0 | 0 | 0.115 | 0 | 3.2 | 0 | 0 | 0.39 | 0 | 0 | 3.71 | 0 | 0 | 0 | > 10
